The values below come from paper PMC6487453 (ACS Central Science, 2019).

This assay addresses T1, LTA4H (Homo sapiens, UniProt P09960).
T1 sequence (P09960 2-611): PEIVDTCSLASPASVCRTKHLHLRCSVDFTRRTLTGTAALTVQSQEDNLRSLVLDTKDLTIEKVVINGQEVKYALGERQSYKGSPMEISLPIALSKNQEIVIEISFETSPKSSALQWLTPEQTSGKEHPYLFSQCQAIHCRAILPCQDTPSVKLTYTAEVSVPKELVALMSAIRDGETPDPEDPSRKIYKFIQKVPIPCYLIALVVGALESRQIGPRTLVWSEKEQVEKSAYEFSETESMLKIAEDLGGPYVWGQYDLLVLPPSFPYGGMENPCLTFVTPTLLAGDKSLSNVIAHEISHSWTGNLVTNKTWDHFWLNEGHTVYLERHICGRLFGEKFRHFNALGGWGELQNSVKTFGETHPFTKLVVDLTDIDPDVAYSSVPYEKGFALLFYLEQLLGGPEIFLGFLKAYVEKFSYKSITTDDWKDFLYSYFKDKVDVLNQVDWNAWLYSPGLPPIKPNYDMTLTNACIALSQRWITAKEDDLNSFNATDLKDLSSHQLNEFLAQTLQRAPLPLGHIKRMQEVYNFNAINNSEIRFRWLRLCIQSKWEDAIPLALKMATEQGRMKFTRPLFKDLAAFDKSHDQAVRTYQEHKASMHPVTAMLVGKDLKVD
The assay is described as follows: colorimetric peptidase assay, 4-nitroaniline absorption at […] nm. It counts as biochemical. The conditions noted are these: 50 mM HEPES pH 7.5, 100 mM KCl.

As for `c1ccc(/N=N/c2ccc(OCCN3CCCC3)cc2)cc1` [trans-LTA4H-Photoswitch], the “colorimetric peptidase assay, 4-nitroaniline absorption at 410 nm” value (inhibitor, L-alanine 4-nitroanilide 1 mM, 460 nm light) was “trans-LTA4H-Photoswitch was a more potent inhibitor of LTA4H peptidase than the cis-isomer”.
Regarding `C[C@H](N)C(=O)Nc1ccc([N+](=O)[O-])cc1` [L-alanine 4-nitroanilide], the “colorimetric peptidase assay, 4-nitroaniline absorption at 410 nm” value (1 mM substrate) is listed as “L-alanine 4-nitroanilide which is converted to the strongly absorbing 4-nitroaniline”.
